# Source: patent publication US11752141B2, “Pharmaceutical compositions and methods utilizing neostigmine and an NK-1 antagonist for treating myasthenia gravis” (priority 2017, dated 2023)
# System: human subjects
# Assay: Phase I single-blind, placebo-controlled study of pyridostigmine bromide with or without aprepitant
# Format: in vivo
# Conditions: single oral dose of aprepitant (up to 125 mg) co-administered with first intolerable dose (FID) of oral pyridostigmine bromide; healthy volunteers; follow-up up to 8 hours
# Experimental: The ability of the NK1-antagonists for preventing the adverse effects of pyridostigmine bromide in humans is tested.
# A Phase I study is conducted in human subjects receiving a single oral dose of pyridostigmine bromide with or without a single oral dose of aprepitant, as a representative NK1-antagonist. The study was a single center, single-blind, placebo-controlled study.
# To be enrolled in the study, participants are to meet the following inclusion/ex elusion criteria:
# • 1. Male or female volunteers between the ages of 18 and 60 years inclusive are required to be in good health, to refrain from consuming xanthine, quinine and caffeine containing beverages, and to refrain from prolonged intensive physical exercise during the study conduct. • 2. […] Subjects had to be in good health according to their medical history including personal and family psychiatric history, physical examination, ECG, vital signs, and laboratory tests. […] Subjects had to be able to swallow multiple pills simultaneously. Key Exclusion Criteria • 1. Any clinically relevant acute or chronic disease which could interfere with the subjects' safety during the trial, expose them to undue risk, or interfere with the study objectives. • 2. History or presence of gastrointestinal, hepatic, or renal disease or other condition known to interfere with the absorption, distribution, metabolism or excretion of drugs. • 3. […]
smiles,measurement,value
"C[C@@H](O[C@H]1OCCN(Cc2nc(=O)[nH][nH]2)[C@H]1c1ccc(F)cc1)c1cc(C(F)(F)F)cc(C(F)(F)F)c1 [aprepitant, 5-[[(2R,3S)-2-[(1R)-1-[3,5-bis(trifluoromethyl)phenyl]ethoxy]-3-(4-fluorophenyl)-4-morpholinyl]methyl]-1,2-dihydro-3H-1,2,4-triazol-3-one]",occurrence of gastro-intestinal AEs with pyridostigmine,prevents or attenuates
